Assay results published in patent US11419866B2, “Pharmaceutical composition for sustained release delivery of buprenorphine” (Foresee Pharmaceuticals Co., Ltd., priority 2018, dated 2022).
Marks after values point to notes of the source that are not given here.

How the values were obtained:
[1] = Color stabilization by antioxidant in buprenorphine formulation, visual inspection (Example 3); format: physicochemical; conditions: overtime under stress condition
[2] = Solubility of buprenorphine in BA/OA combination vehicles at room temperature

N[C@@H](CS)C(=O)O [Cys, cysteine]
capacity of color mitigation in buprenorphine formulation [1]: milder color stabilizing effect

N[C@@H](CCC(=O)N[C@@H](CS)C(=O)NCC(=O)O)C(=O)O [Glu, glutathione]
capacity of color mitigation in buprenorphine formulation [1]: milder color stabilizing effect

O=C(O)CCCCC1CCSS1 (stereo not shown) [LipA, lipoic acid]
capacity of color mitigation in buprenorphine formulation [1]: milder color stabilizing effect

OCC(O)CS (stereo not shown) [MTG, monothioglycerol]
capacity of color mitigation in buprenorphine formulation [1]: stronger capacity of color mitigation | benzyl aldehyde formation promoted by thiolated antioxidant (BA/OA solution): positive benzyl aldehyde formation | benzyl aldehyde formation with addition of VC (thiolated antioxidant containing BA/OA solution): inhibition effect of benzyl aldehyde

O=C([O-])CS.[Na+] [STG, sodium thioglycolate]
capacity of color mitigation in buprenorphine formulation [1]: stronger capacity of color mitigation

O=C(O)CS [TGA, thioglycolic acid]
capacity of color mitigation in buprenorphine formulation [1]: stronger capacity of color mitigation

CO[C@]12CC[C@@]3(C[C@@H]1[C@](C)(O)C(C)(C)C)[C@H]1Cc4ccc(O)c5c4[C@@]3(CCN1CC1CC1)[C@H]2O5 [buprenorphine, (25)-2-[(−)-(5R,6R,7R,14S)-9a-cyclo-propyl-methyl-4,5-epoxy-6,14-ethano-3-hydroxy-6-methoxymorphinan-7-yl]-3,3-di-methylbutan-2-ol]
Solubility of buprenorphine ([2]; BA/OA vehicle, OA wt % 0, room temperature): 21.2% | Solubility of buprenorphine ([2]; BA/OA vehicle, OA wt % 5, room temperature): 22.5% | Solubility of buprenorphine ([2]; BA/OA vehicle, OA wt % 10, room temperature): 25.4% | Solubility of buprenorphine ([2]; BA/OA vehicle, OA wt % 15, room temperature): 30.7%* | Solubility of buprenorphine ([2]; BA/OA vehicle, OA wt % 18, room temperature): 30.8%* | Solubility of buprenorphine ([2]; BA/OA vehicle, OA wt % 30, room temperature): 33.1%* | Solubility of buprenorphine ([2]; BA/OA vehicle, OA wt % 40, room temperature): 36.2%* | Solubility of buprenorphine ([2]; OA wt % 100, room temperature): 27.7%
